Earlier results on 1 compound are cited in patent US20070027110A1, “Double salts of (-)-hydroxycitric acid with an amine and a group II a metal and a process for preparing the same” (priority 2004, published 2007).

For the series the following is noted: free acid form, forming lactone; liquid form unstable during storage.

Molecules are shown by their SMILES.

For the compound `O=C(O)CC(O)(C(=O)O)C(O)C(=O)O` (single isomer, unassigned; (-)) [(−)-hydroxycitric acid], the stability entry is “unstable”.
